Measurements taken from patent US9878054B2, “Polypeptide and lipophilic moiety conjugate compositions, formulations, and uses related thereto” (Tufts Medical Center, Inc., priority 2012, dated 2018).
Where a SMILES comes first, the peptide text is derived from it. The star is where a group is joined. Palmitoyl = CCCCCCCCCCCCCCCC(=O)*

What was measured:
[1] = target: T1, PAR1 (Homo sapiens, UniProt P25116); assay: Human platelet aggregation, PAR1 agonist SFLLRN; format: cell-based; conditions: gel filtered human platelets, SFLLRN 2.5 μM
T1 construct: Platelets were isolated from platelet rich plasma (PRP) using Sepharose 2B columns; endogenous in cells; host or cells: human platelets from healthy donors, gel-filtered
T1 sequence (P25116 22-425): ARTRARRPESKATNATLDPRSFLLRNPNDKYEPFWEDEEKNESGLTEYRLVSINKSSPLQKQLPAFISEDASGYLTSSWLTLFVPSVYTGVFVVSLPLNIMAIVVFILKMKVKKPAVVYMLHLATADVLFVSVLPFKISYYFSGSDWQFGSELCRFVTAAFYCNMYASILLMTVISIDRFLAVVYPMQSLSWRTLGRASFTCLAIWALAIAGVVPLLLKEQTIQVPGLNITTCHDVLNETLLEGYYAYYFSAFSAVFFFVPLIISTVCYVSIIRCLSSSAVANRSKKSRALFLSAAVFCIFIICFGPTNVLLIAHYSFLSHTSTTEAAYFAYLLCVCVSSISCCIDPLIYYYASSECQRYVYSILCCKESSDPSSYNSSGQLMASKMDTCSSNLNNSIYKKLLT
Experimental: A, Depiction of the mechanism of action of the cell-penetrating PZ-128 pepducin compound targeting the third intracellular loop (red) of PAR1. B, The NMR structure of PZ-128 was determined by simulated annealing methods using 210 distance restraints and included restraints to the proximal 3 hydrocarbons of the lipid. […] D, PZ-128 inhibits PAR1-dependent platelet aggregation. Gel filtered human platelets were treated with various concentrations of PZ-128 and then challenged with the PAR1 agonist SFLLRN (2.5 μM), 20 μM ADP, 200 μM AYPGKF or 1 mg/ml Ristocetin. E, Human platelets were treated with 3 μM PZ-128, 3 μM RWJ-56110, or 5% dextrose vehicle before the addition of various concentrations of thrombin (n=3-5).
PZ-128 also markedly right-shifted thrombin-induced aggregation by 5-fold. By comparison, the small molecule RWJ-56110 which antagonizes PAR1 at the extracellular ligand-binding site gave a 2-fold right shift in the thrombin activation curve of human platelets.
Whole blood from healthy donors was collected into a 30 ml syringe containing sodium citrate (0.4% vol/vol final). Platelets were isolated from platelet rich plasma (PRP) using Sepharose 2B columns in modified PIPES buffer.

[2] = tested on: PAR1; assay: Baboon ex vivo platelet aggregation, SFLLRN (PAR1); format: in vivo
Experimental: (§1) A-C, Male baboons (10-12 kg) were administered 1, 3 or 6 mg/kg PZ-128, or 5% dextrose USP vehicle by iv infusion and blood collected into 100 μg/ml PPACK anticoagulant at 0, 1, 2, 6, or 24 h time points. Light transmission platelet aggregometry was performed with platelet rich plasma with the indicated agonists (SFLLRN for PAR1, AYPGKF for PAR4 and ADP for P2Y12 and P2Y1). Data are reported as mean±SD (n=3-7) relative to time 0 controls (0%) and were analyzed by repeated measures one-way ANOVA with Bonferroni post-test correction; *P<0.05, **P<0.01 relative to time 0. Global P values were >0.05 for 1 mg/kg, 0.004 for 3 mg/kg, <0.0001 for 6 mg/kg. D, Pharmacokinetics of 3 and 6 mg/kg 45-min iv infusions of PZ-128 in male baboons. Plasma PZ-128 levels were measured by LC/MS/MS at 9 sequential time points: baseline, 15 min, 30 min, 1 h, 2 h, 4 h, 8 h, 24 h and 48 h after the start of infusion. Open symbols indicated plasma concentrations that were under the measurement threshold (5 ng/ml).
The anti-platelet effects of PZ-128 micelles were next examined in baboons at various time points after receiving different doses of intravenous infusions. […] At the lowest dose tested, 1 mg/kg PZ-128 micelles ([…]), PAR1-dependent aggregation (5 μM SFLLRN) was inhibited by only 5-10% at the 1-2 h time points (FIG. 3A). […] As a further assessment of in vivo specificity, PZ-128 gave no inhibition at any dose of either the ADP or AYPGKF (PAR4) responses at any time point.
Non-terminal thrombosis and platelet aggregation studies were performed on 12 healthy male baboons (Papio anubis) weighing 9-12 kg at the Oregon National Primate Research Center (ONPRC). […] Whole blood (10 ml) was collected into PPACK at a final concentration of 100 μg/ml just prior to infusion (baseline) and 15 min to 24 h after the PZ-128 micelle infusion was terminated. Platelet counts and hematocrit were measured immediately. PRP was prepared from whole blood and platelet aggregation performed as described above. Bleeding time (BT) measurements were performed on the shaved volar surface of the forearm using the standard template method.

[3] = tested on: PAR4; assay: Baboon ex vivo platelet aggregation, AYPGKF (PAR4); format: in vivo; conditions: any dose, any time point
Experimental: as §1
The anti-platelet effects of PZ-128 micelles were next examined in baboons at various time points after receiving different doses of intravenous infusions. […]
Non-terminal thrombosis and platelet aggregation studies were performed on 12 healthy male baboons (Papio anubis) weighing 9-12 kg at the Oregon National Primate Research Center (ONPRC). […] Platelet counts and hematocrit were measured immediately. […]

[4] = Solubility of lyophilized PZ-128 after reconstitution (visual inspection); format: physicochemical
Experimental: Column recovered fractions containing PZ-128 ammonium salts were lyophilized by using the following procedure: 5 mL of elute from reverse phase column cartridge was place into a 15-mL vial; the sample frozen in dry ice-isopropanol bath for 5 minutes with swirling until completely frozen, the temperature should be about −35 to −45° C. and the vacuum pressure should be about 60-100×10^−3 mBar; frozen samples/vials are places in a 0.5-1 L lyophilization glass container; open the chamber to the vacuum pump where the vacuum pressure should rise and then come back to 100-200×10^−3 M Bar until drying is complete; and the sample is stored at −20° C. The product of the first PZ-128 lyophilization was dissolved in pure water and lyophilized a second time.
The different excipients listed in Table 1 were added to 10×500 μL aliquots of the fully soluble 1 mg/mL PZ-128 solution (product of the first lyophilization), mixed, froze, and lyophilization overnight. After lyophilization, the appearance of the dried lyophilizate was examined and the solubility determined after reconstitution with 100 μL water to 5 mg/mL PZ-128 salt product.
The appearances of each of the samples after a second lyophilization from water with the different excipients are listed in Table 1. […]

CCCCCCCCCCCCCCCC(=O)N[C@@H](CCCCN)C(=O)N[C@@H](CCCCN)C(=O)N[C@@H](CO)C(=O)N[C@@H](CCCNC(=N)N)C(=O)N[C@@H](C)C(=O)N[C@@H](CC(C)C)C(=O)N[C@@H](Cc1ccccc1)C(N)=O [PZ-128, palmitate-KKSRALF-NH2] (Palmitoyl-KKSRALF-NH2)
Extent of inhibition of human platelet aggregation in response to SFLLRN [1]: completely inhibited
IC50 ([1]; read-out: IC50, inhibition of human platelet aggregation in response to PAR1 agonist SFLLRN): 500 nM
Inhibition of PAR1-dependent ex vivo aggregation ([2]; 1 mg/kg, 30 min infusion, 5 μM SFLLRN, 1-2 h): 5-10%
Reversibility: inhibition with higher concentration of SFLLRN agonist ([2]; 3 mg/kg and 6 mg/kg, 10 μM SFLLRN): loss of inhibition
Inhibition of PAR1-dependent ex vivo aggregation ([2]; 3 mg/kg, 30 min infusion, 1 h and 2 h): 85%
Inhibition of PAR1-dependent ex vivo aggregation ([2]; 3 mg/kg, 24 h): not appreciably inhibited
Inhibition of PAR1-dependent ex vivo aggregation ([2]; 6 mg/kg, 45 min infusion, 1-2 h): 100%
Inhibition of PAR1-dependent ex vivo aggregation ([2]; 6 mg/kg, 45 min infusion, 6 h): 90%
PAR1-dependent ex vivo aggregation, recovery ([2]; 6 mg/kg, 24 h): completely recovered
Inhibition of AYPGKF (PAR4) response ex vivo [3]: no inhibition
Solubility of product of second lyophilization from pure water ([4]; 5 mg/mL, tested formulations including 100% water): did not solubilize
Solubility of micelles after filtration and second lyophilization with ammonium acetate ([4]; 100% water and 5% dextrose/water at 5 mg/mL): readily soluble
